How the values were obtained:
Assay type in all cases: biochemical, human
normal plasma pool (NPP) [1] = experiment: PiCT Method 4 (inverted PiCT) clotting time on ACL TOP 500; conditions: for Clotting time: Table 10B, PiCT Method 4, NPP spiked, mean n = 4; for PiCT ® method 4 clotting time: Table 11
Procedure: The present invention is in one aspect directed to the use of a clotting assay, in particular the PiCT® testing method on a detection system such as e.g. the ACL TOP® 500 analyzer and to a method to quantitatively and qualitatively detect anticoagulants in a sample, e.g. blood or plasma. […] PiCT® Method 4 or PiCT® inverted includes that first the start reagent is added to the sample, the mixture allowed to proceed according to the manufacturer's instructions followed by addition of the activator, i.e. a reversed order compared to standard PiCT® (see above). PiCT® Method 1 to 4 is described in more detail in the Examples.
(§1) The 4 methods (see above) are in more detail described in the Examples. Specific pipetting schemes were designed using NPP spiked with incremental amounts of anticoagulants in order to achieve high reproducibility of the test system, which is required for drug identification including use in a POC system. With regards to the ACL TOP® 500 analyzer, PiCT® Method 1 to 4 has been established as follows: • PiCT® Method 1: 50 μl of plasma is incubated for 180 sec with 50 μl of reagent 1 and afterwards 50 μl of reagent 2 is added and the time to clot is recorded on the ACL TOP® 500 (i.e. pipetting scheme: P-50/A-50/I-180/50-S).
After calculation of the RR for the different kind of anticoagulants (see Example 1) samples of NPP spiked with incremental amounts of anticoagulants were used in the ACL TOP® 500, wherein 45 μl start reagent was incubated with 140 μl plasma for 60 sec. The time to clot was recorded after addition of 40 μl of activator (i.e. so-called inverted PiCT®).

plasma samples [2] = experiment: PT (HemosIL PT recombiplastin) clotting time; conditions: Table 6, spiked plasma, mean
Procedure: (§2) In order to address the above question, i.e. to determine the nature of an anticoagulant in a sample, a combination of several methods has to be performed, including PiCT® Method 1, PiCT® Method 4, aPTT (HemosIL™ aPTT SP), PT (HemosIL™ PT recombiplastin), and sometimes even a modified PiCT® Method 1 wherein polybrene has been added. In order to simulate this, plasma samples spiked with different levels of anticoagulants were analyzed using the ACL TOP® 500 analyzer.

normal plasma pool (NPP) [3] = experiment: PiCT Method 1 (standard Pefakit PiCT) clotting time on ACL TOP 500; conditions: for Clotting time with PiCT ® Method 1: spiked plasma; for Clotting time: Table 7C, PiCT Method 1, NPP spiked, mean n = 4
Text: As described by Korte et al. (supra) or in EP 1240528, Pefakit® PiCT® is a functional clotting assay based on the direct activation of the prothrombinase complex which results in a fine-tuned analytical output directly proportional to the final anticoagulant activity of the factor Xa or factor IIa inhibitors (see Calatzis, Haemostasis 2000, 30:172-174). To perform the Pefakit® PiCT® test (referred to herein as standard “PiCT® or PiCT® Method 1), a defined amount of PiCT® activator (=reagent 1) is added to a sample, such as, e.g., plasma. The mixture is allowed to proceed at 37° C. for a specific period of time. The Start reagent (=reagent 2) is then added to the mixture and the time required for clot formation is measured. The presence of anticoagulants in the samples dose-dependently prolongs the time to clot. Pefakit® PiCT® is adapted to laboratory instruments based on mechanical or optical detection systems, including but not limited to ACL TOP® family (Instrumentation Laboratory), preferably ACL TOP® 500, STA Compact® series (Stago) or the BCS® XP series (Siemens).
as §1, with “P-50/A-50/I-180/50-S). This method is in particularly useful for detection of UFH, LMWH or hirudin. • PiCT® Method 2: P-75/A-65/I-180/35-S on the ACL TOP® 500 or P-80/A-65/I-180/40-S on the STA Compact® or P-75/A-65/I-180/S-40 on the BCS® XP. This method is in particularly useful for fondaparinux. • PiCT® Method 3: P-90/A-70/I-180/40-S on the ACL TOP® 500 or STA Compact®, or P-70/A-60/I-180/45-S on the BCS® XP. This method is in particularly useful for dabigatran or argatroban. • PiCT® Method 4: P-140/S-45/I160/A-40 on the ACL TOP® 500 or STA Compact®, or P-125/S-45/I-150/A-40 on the BCS® XP. This method is in particularly useful for rivaroxaban or apixaban.” for “P-50/A-50/I-180/50-S).”
With the normal PiCT®, i.e. PiCT® Method 1, wherein 50 μl of plasma is mixed with the same amount of reagent 1 (PiCT® activator), incubated for 180 sec and mixed with the same amount of reagent 2 (PiCT® start reagent) in a ACL TOP® 500 analyzer, the presence of NOACs cannot be determined in a sample. This is true even at high levels of said drugs in the sample, i.e. in the range of 300 ng/ml. Thus, in order to determine which NOAC is present in the sample, a combination of PiCT® Method 1 and PiCT® method 4 has to be used (see above for detailed description). To confirm this, spiked plasma samples with different levels of NOACs were prepared and the clotting time measured using first PiCT® Method 1 followed by PiCT® Method 4. […] In case of dabigatran present in the sample, both PiCT® Method 1 (which had to be adapted, i.e. PiCT® Method 3) and 4 are out of range as indicated in bold.

plasma samples [4] = experiment: aPTT (HemosIL aPTT SP) clotting time; conditions: Table 6, spiked plasma, mean
Procedure: as §2, with “analyzer. For each drug, a specific pattern was obtained, i.e. clotting times within the RR and clotting times above the RR, depending on the used testing method, which is unique at least for the class of anticoagulant or even for a specific anticoagulant.” for “analyzer.”

plasma samples [5] = experiment: PiCT Method 1 with polybrene added, clotting time; conditions: Table 6, spiked plasma, mean
Text: By the addition of polybrene a distinction can be done, which of the anticoagulants is really present in the sample: if after addition of polybrene the measured clotting times are again back to RR when using the PiCT® Method 1, the sample comprises heparins, such as e.g. UFH or LMWH. Alternatively, if the result is not going back to RR, the sample comprises low concentrations of dabigatran or hirudin. […] The particular clotting times measured for the different anticoagulants are shown in Table 6, which is an example of results obtained in spiked plasma samples.
as §2, with “analyzer. For each drug, a specific pattern was obtained, i.e. clotting times within the RR and clotting times above the RR, depending on the used testing method, which is unique at least for the class of anticoagulant or even for a specific anticoagulant.” for “analyzer.”

COc1ccc(-n2nc(C(N)=O)c3c2C(=O)N(c2ccc(N4CCCCC4=O)cc2)CC3)cc1 [apixaban]
Clotting time with PiCT ® Method 4 (normal plasma pool (NPP) [1]; Table 4, NPP spiked with 20 ng per ml): 45 s
Clotting time with PiCT ® Method 4 (normal plasma pool (NPP) [1]; Table 4, NPP spiked with 35 ng per ml): 54 s
Clotting time with PiCT ® Method 4 (normal plasma pool (NPP) [1]; Table 5, spiked plasma, 20 ng per ml): 45 s
Clotting time with PiCT ® Method 4 (normal plasma pool (NPP) [1]; Table 5, spiked plasma, 35 ng per ml): 54 s
Clotting time with PiCT ® Method 4 (normal plasma pool (NPP) [1]; Table 5, spiked plasma, 300 ng per ml): 124.3 s
Clotting time with PiCT ® Method 4 (normal plasma pool (NPP) [1]; Table 6, spiked plasma, 50 ng, mean): 54.4 s
Clotting time with PiCT ® Method 4 (normal plasma pool (NPP) [1]; Table 6, spiked plasma, 200 ng, mean): 151.0 s
Clotting time (normal plasma pool (NPP) [1]; 5 ng/ml): 65 s
Clotting time (normal plasma pool (NPP) [1]; 10 ng/ml): 74 s
Clotting time (normal plasma pool (NPP) [1]; 50 ng/ml): 109 s
Clotting time (normal plasma pool (NPP) [1]; 100 ng/ml): 136 s
Clotting time (normal plasma pool (NPP) [1]; 200 ng/ml): 167 s
Clotting time (normal plasma pool (NPP) [1]; 500 ng/ml): 233 s
PiCT ® method 4 clotting time (normal plasma pool (NPP) [1]; spiked plasma, 20 ng/mL (wash off level)): 45 sec (n = 3)
PiCT ® method 4 clotting time (normal plasma pool (NPP) [1]; spiked plasma, 35 ng/mL (wash off level)): 54 sec (n = 3)
Clotting time with PT (plasma samples [2]; 50 ng): 11.2 s
Clotting time with PiCT ® Method 1 (normal plasma pool (NPP) [3]; Table 5, 20 ng per ml (title: Method 3 for dabigatran)): 18 s
Clotting time with PiCT ® Method 1 (normal plasma pool (NPP) [3]; Table 5, 35 ng per ml (title: Method 3 for dabigatran)): 18 s
Clotting time with PiCT ® Method 1 (normal plasma pool (NPP) [3]; Table 5, 300 ng per ml (title: Method 3 for dabigatran)): 24.9 s
Clotting time with PiCT ® Method 1 (normal plasma pool (NPP) [3]; Table 6, 50 ng, mean): 18.9 s
Clotting time with PiCT ® Method 1 (normal plasma pool (NPP) [3]; Table 6, 200 ng, mean): 22.3 s
Clotting time with aPTT (plasma samples [4]; 50 ng): 31.0 s
Clotting time with aPTT (plasma samples [4]; 200 ng): 36.4 s

lepirudin [hirudin]
Clotting time with PiCT ® Method 4 (normal plasma pool (NPP) [1]; Table 4, NPP spiked with 0.4 μg per ml): 300 s
Clotting time with PiCT ® Method 4 (normal plasma pool (NPP) [1]; Table 6, spiked plasma, 0.4 μg, mean): 300.0 s
Clotting time with PiCT ® Method 4 (normal plasma pool (NPP) [1]; Table 6, spiked plasma, 2.5 μg, mean): 300.0 s
Clotting time with PiCT ® Method 1 + polybrene (plasma samples [5]; 0.4 μg): 89.5 s
Clotting time with PiCT ® Method 1 + polybrene (plasma samples [5]; 2.5 μg): 258.0 s
Clotting time with PT (plasma samples [2]; 0.4 μg): 11.8 s
Clotting time with PT (plasma samples [2]; 2.5 μg): 14.6 s
Clotting time with PiCT ® Method 1 (normal plasma pool (NPP) [3]; Table 6, 0.4 μg, mean): 88.9 s
Clotting time with PiCT ® Method 1 (normal plasma pool (NPP) [3]; Table 6, 2.5 μg, mean): 264.5 s
Clotting time (normal plasma pool (NPP) [3]; 0.2 μg/ml): 41 s
Clotting time (normal plasma pool (NPP) [3]; 0.4 μg/ml): 55 s
Clotting time (normal plasma pool (NPP) [3]; 0.6 μg/ml): 69 s
Clotting time (normal plasma pool (NPP) [3]; 0.9 μg/ml): 86 s
Clotting time (normal plasma pool (NPP) [3]; 1.3 μg/ml): 113 s
Clotting time (normal plasma pool (NPP) [3]; 1.7 μg/ml): 142 s
Clotting time (normal plasma pool (NPP) [3]; 2.0 μg/ml): 158 s
Clotting time (normal plasma pool (NPP) [3]; 2.4 μg/ml): 183 s
Clotting time (normal plasma pool (NPP) [3]; 2.8 μg/ml): 209 s
Clotting time (normal plasma pool (NPP) [3]; 3.0 μg/ml): 219 s
Clotting time with aPTT (plasma samples [4]; 0.4 μg): 60.6 s
Clotting time with aPTT (plasma samples [4]; 2.5 μg): 108.8 s

Source: patent US11846640B2, “Identification of anticoagulants in a sample” (DSM IP Assets B.V., priority 2013, dated 2023)
